Reference: US20260022142A1, “MACROCYCLIC IMMUNOMODULATORS” (Bristol-Myers Squibb Company, priority 2022, published 2026)
pIC50: −log10 of the molar value. Bridge positions count the residues as written; N and C are the ends. Square brackets hold non-standard residues; d marks the D form. Peptide text beside a SMILES is read from it. * marks the point of attachment. Phe(4-CONH2) = NC(=O)c1ccc(C[C@H](N)C(=O)O)cc1; Bip = N[C@@H](Cc1ccc(-c2ccccc2)cc1)C(=O)O; Phe(3-Me) = Cc1cccc(C[C@H](N)C(=O)O)c1; His(τ-Me) = Cn1cnc(C[C@H](N)C(=O)O)c1; His(π-Me) = Cn1cncc1C[C@H](N)C(=O)O; Val(3-OH) = CC(C)(O)[C@H](N)C(=O)O; Val(3-F) = CC(C)(F)[C@H](N)C(=O)O; Ala(cPr) = N[C@@H](CC1CC1)C(=O)O; 4Pal = N[C@@H](Cc1ccncc1)C(=O)O; Cha = N[C@@H](CC1CCCCC1)C(=O)O; Cit = NC(=O)NCCC[C@H](N)C(=O)O; Carboxymethyl = O=C(O)C*; Orn = NCCC[C@H](N)C(=O)O; Aun = NCCCCCCCCCCC(=O)O; Dab = NCC[C@H](N)C(=O)O; Dap = NC[C@H](N)C(=O)O; Ac3c = NC1(C(=O)O)CC1; Piv = CC(C)(C)C(=O)*

Molecular target: T1, PD-1/PD-L1 interaction (PE-labeled human PD-L1-Ig binding to Jurkat cell line over-expressing human PD-1) (Homo sapiens, UniProt Q15116)
T1 construct: expressed in transfected cells; host or cells: Jurkat
Assay: Jurkat-PD-1 Cell Binding High-Content Screening Assay (CBA)
Format: cell-based
Details: Jurkat cell line over-expressing human PD-1; PE-labeled PD-L1-Ig 20 nM final; read-out: Jurkat hPD1-PDL1 IC50
Outline: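 First, compound is added to PD-1-expressing Jurkat cells in serum-containing DMEM and left 2 h at 37° C. Next, PE-conjugated PD-L1-Ig is introduced at 20 nM final concentration for 1 hour. Finally, cells are fixed in 4% paraformaldehyde with Hoechst 33342, washed and imaged.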

T1 sequence (Q15116 25-288): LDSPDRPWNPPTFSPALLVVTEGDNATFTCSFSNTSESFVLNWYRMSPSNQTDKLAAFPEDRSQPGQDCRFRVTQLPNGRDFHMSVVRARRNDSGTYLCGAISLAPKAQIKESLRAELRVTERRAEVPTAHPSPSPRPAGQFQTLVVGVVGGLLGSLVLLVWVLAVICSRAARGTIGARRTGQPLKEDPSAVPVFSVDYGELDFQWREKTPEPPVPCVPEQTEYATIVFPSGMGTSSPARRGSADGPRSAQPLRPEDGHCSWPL

Question: `Cc1cccc(C[C@@H]2NC(=O)[C@H](CC(=O)O)NC(=O)[C@H](Cc3ccc(OCC(=O)O)cc3)NC(=O)[C@H](Cc3ccncc3)NC(=O)CSC[C@@H](C(=O)N[C@@H](CCN)C(=O)NCCCCCCCCCCC(=O)O)NC(=O)[C@H]([C@@H](C)O)NC(=O)[C@H](C(C)C)NC(=O)[C@H](CC3CCCCC3)NC(=O)[C@H](CCN)NC(=O)[C@@H](CC(C)C)NC(=O)[C@H](CCCN)NC(=O)[C@H](Cc3ccc(OCC(=O)O)cc3)NC(=O)[C@H](Cc3ccc(-c4ccccc4)cc3)NC(=O)[C@H](C(C)(C)O)NC2=O)c1` [Compound 2151] ({CH2CO}-[4Pal]Y(Carboxymethyl)D[Phe(3-Me)][Val(3-OH)][Bip]Y(Carboxymethyl)[Orn][dL][Dab][Cha]VTC[Dab][Aun]-OH; thioether N-14) was tested. Which pIC50 did it give?
Answer: 7.39

Question: `Cc1cccc(C[C@@H]2NC(=O)[C@H](CC(=O)O)NC(=O)[C@H](Cc3ccc(OCC(=O)O)cc3)NC(=O)[C@H](Cc3cncn3C)NC(=O)CSC[C@@H](C(=O)N[C@@H](CCN)C(=O)NCCCCCCCCCCC(=O)O)NC(=O)[C@H]([C@@H](C)O)NC(=O)[C@H](C(C)C)NC(=O)[C@H](CC3CCCCC3)NC(=O)[C@H](CCN)NC(=O)[C@@H](CC(C)C)NC(=O)[C@H](CCCN)NC(=O)[C@H](Cc3ccc(OCC(=O)O)cc3)NC(=O)[C@H](Cc3ccc(-c4ccccc4)cc3)NC(=O)[C@H](C(C)(C)O)NC2=O)c1` [Compound 2152] ({CH2CO}-[His(π-Me)]Y(Carboxymethyl)D[Phe(3-Me)][Val(3-OH)][Bip]Y(Carboxymethyl)[Orn][dL][Dab][Cha]VTC[Dab][Aun]-OH; thioether N-14) was tested. Which pIC50 did it give?
Answer: 7.13

Question: How did the pIC50 turn out when `Cc1cccc(C[C@@H]2NC(=O)[C@H](CC(=O)O)NC(=O)[C@H](Cc3ccc(OCC(=O)O)cc3)NC(=O)[C@H](CN)NC(=O)CSC[C@@H](C(=O)N[C@@H](CCN)C(=O)NCCCCCCCCCCC(=O)O)NC(=O)[C@H]([C@@H](C)O)NC(=O)[C@H](C(C)(C)O)NC(=O)[C@H](CC3CCCCC3)NC(=O)[C@H](CCN)NC(=O)[C@@H](CC(C)C)NC(=O)[C@H](CCCN)NC(=O)[C@H](CCCNC(N)=O)NC(=O)[C@H](Cc3ccc(-c4ccccc4)cc3)NC(=O)[C@H](C(C)C)NC2=O)c1` [Compound 2153] ({CH2CO}-[Dap]Y(Carboxymethyl)D[Phe(3-Me)]V[Bip][Cit][Orn][dL][Dab][Cha][Val(3-OH)]TC[Dab][Aun]-OH; thioether N-14) was run?
Answer: 7.63

Question: With `Cc1cccc(C[C@@H]2NC(=O)[C@H](CC(=O)O)NC(=O)[C@H](Cc3ccc(OCC(=O)O)cc3)NC(=O)[C@H](Cc3ccc(C(N)=O)cc3)NC(=O)CSC[C@@H](C(=O)N[C@@H](CCN)C(=O)NCCCCCCCCCCC(=O)O)NC(=O)[C@H](CCC(N)=O)NC(=O)[C@H](C(C)(C)O)NC(=O)[C@H](CC3CCCCC3)NC(=O)[C@H](CCN)NC(=O)[C@@H](CC(C)C)NC(=O)[C@H](CCCN)NC(=O)[C@H](Cc3ccc(OCC(=O)O)cc3)NC(=O)[C@H](Cc3ccc(-c4ccccc4)cc3)NC(=O)[C@H](Cc3ccc(OCC(=O)O)cc3)NC2=O)c1` [Compound 2154] ({CH2CO}-[Phe(4-CONH2)]Y(Carboxymethyl)D[Phe(3-Me)]Y(Carboxymethyl)[Bip]Y(Carboxymethyl)[Orn][dL][Dab][Cha][Val(3-OH)]QC[Dab][Aun]-OH; thioether N-14) as the compound, how does the pIC50 read?
Answer: 8.04

Question: With `Cc1cccc(C[C@@H]2NC(=O)[C@H](CC(=O)O)NC(=O)[C@H](Cc3ccc(OCC(=O)O)cc3)NC(=O)[C@H](Cc3cn(C)cn3)NC(=O)CSC[C@@H](C(=O)N[C@@H](CCN)C(=O)NCCCCCCCCCCC(=O)O)NC(=O)[C@H](CCC(N)=O)NC(=O)[C@H](C(C)(C)O)NC(=O)[C@H](CC3CCCCC3)NC(=O)[C@H](CCN)NC(=O)[C@@H](CC(C)C)NC(=O)[C@H](CCCN)NC(=O)[C@H](Cc3ccc(OCC(=O)O)cc3)NC(=O)[C@H](Cc3ccc(-c4ccccc4)cc3)NC(=O)[C@H](Cc3ccc(OCC(=O)O)cc3)NC2=O)c1` [Compound 2155] ({CH2CO}-[His(τ-Me)]Y(Carboxymethyl)D[Phe(3-Me)]Y(Carboxymethyl)[Bip]Y(Carboxymethyl)[Orn][dL][Dab][Cha][Val(3-OH)]QC[Dab][Aun]-OH; thioether N-14) as the compound, how does the pIC50 read?
Answer: 7.71

Question: With `Cc1cccc(C[C@@H]2NC(=O)[C@H](CC(=O)O)NC(=O)[C@H](Cc3ccc(OCC(=O)O)cc3)NC(=O)[C@H](CCNC(=O)C(C)(C)C)NC(=O)CSC[C@@H](C(=O)N[C@@H](CCN)C(=O)NCCCCCCCCCCC(=O)O)NC(=O)[C@H](CCC(N)=O)NC(=O)[C@H](C(C)(C)F)NC(=O)[C@H](CC3CCCCC3)NC(=O)[C@H](CCN)NC(=O)[C@@H](CC(C)C)NC(=O)[C@H](CCCN)NC(=O)[C@H](Cc3ccc(OCC(=O)O)cc3)NC(=O)[C@H](Cc3ccc(-c4ccccc4)cc3)NC(=O)[C@H](Cc3ccc(OCC(=O)O)cc3)NC2=O)c1` [Compound 2156] ({CH2CO}-[Dab](Piv)Y(Carboxymethyl)D[Phe(3-Me)]Y(Carboxymethyl)[Bip]Y(Carboxymethyl)[Orn][dL][Dab][Cha][Val(3-F)]QC[Dab][Aun]-OH; thioether N-14) as the compound, how does the pIC50 read?
Answer: 8.01

Question: How did the pIC50 turn out when `Cc1cccc(C[C@@H]2NC(=O)[C@H](CC(=O)O)NC(=O)[C@H](Cc3ccc(OCC(=O)O)cc3)NC(=O)[C@H](CCCNC(=N)N)NC(=O)CSC[C@@H](C(=O)N[C@@H](CCN)C(=O)NCCCCCCCCCCC(=O)O)NC(=O)[C@H]([C@@H](C)O)NC(=O)[C@H](C(C)C)NC(=O)[C@H](CC3CCCCC3)NC(=O)[C@H](CCN)NC(=O)[C@@H](CC(C)C)NC(=O)[C@H](CCCN)NC(=O)[C@H](Cc3ccc(OCC(=O)O)cc3)NC(=O)[C@H](Cc3ccc(-c4ccccc4)cc3)NC(=O)[C@H](Cc3ccc(OCC(=O)O)cc3)NC2=O)c1` [Compound 2157] ({CH2CO}-RY(Carboxymethyl)D[Phe(3-Me)]Y(Carboxymethyl)[Bip]Y(Carboxymethyl)[Orn][dL][Dab][Cha]VTC[Dab][Aun]-OH; thioether N-14) was run?
Answer: 7.01

Question: `Cc1cccc(C[C@@H]2NC(=O)[C@H](CC(=O)O)NC(=O)[C@H](Cc3ccc(OCC(=O)O)cc3)NC(=O)[C@H](CN)NC(=O)CN[C@@H](C(=O)N[C@@H](CCN)C(=O)NCCCCCCCCCCC(=O)O)CNC(=O)[C@H]([C@@H](C)O)NC(=O)[C@H](C(C)C)NC(=O)[C@H](CC3CCCCC3)NC(=O)[C@H](CCN)NC(=O)[C@@H](CC(C)C)NC(=O)[C@H](CCCN)NC(=O)[C@H](CCCNC(N)=O)NC(=O)[C@H](Cc3ccc(-c4ccccc4)cc3)NC(=O)[C@H](C(C)C)NC2=O)c1` [Compound 2158] was tested. Which pIC50 did it give?
Answer: 6.89

Question: How did the pIC50 turn out when `Cc1cccc(C[C@@H]2NC(=O)[C@H](CC(=O)O)NC(=O)[C@H](Cc3ccc(OCC(=O)O)cc3)NC(=O)[C@H](CCCNC(=N)N)NC(=O)CN(C)C[C@@H](C(=O)N[C@@H](CCN)C(=O)NCCCCCCCCCCC(=O)O)NC(=O)[C@H]([C@@H](C)O)NC(=O)[C@H](C(C)C)NC(=O)[C@H](CC3CCCCC3)NC(=O)[C@H](CCN)NC(=O)[C@@H](CC(C)C)NC(=O)[C@H](CCCN)NC(=O)[C@H](Cc3ccc(OCC(=O)O)cc3)NC(=O)[C@H](Cc3ccc(-c4ccccc4)cc3)NC(=O)[C@H](Cc3ccc(OCC(=O)O)cc3)NC2=O)c1` [Compound 2159] was run?
Answer: 7.02

Question: With `Cc1cccc(C[C@@H]2NC(=O)[C@H](CC(=O)O)NC(=O)[C@H](Cc3ccc(OCC(=O)O)cc3)NC(=O)[C@H](CN)NC(=O)CNC[C@@H](C(=O)N[C@@H](CCN)C(=O)NCCCCCCCCCCC(=O)O)NC(=O)[C@H]([C@@H](C)O)NC(=O)[C@H](C(C)C)NC(=O)[C@H](CC3CCCCC3)NC(=O)[C@H](CCN)NC(=O)[C@@H](CC(C)C)NC(=O)[C@H](CCCN)NC(=O)[C@H](CCCNC(N)=O)NC(=O)[C@H](Cc3ccc(-c4ccccc4)cc3)NC(=O)[C@H](C(C)C)NC2=O)c1` [Compound 2160] as the compound, how does the pIC50 read?
Answer: 7.37

Question: `Cc1cccc(C[C@@H]2NC(=O)[C@H](CC(=O)O)NC(=O)[C@H](Cc3ccc(OCC(=O)O)cc3)NC(=O)[C@H](CCCNC(=N)N)NC(=O)CSC[C@@H](C(=O)NC3(C(=O)NCCCCCCCCCCC(=O)O)CC3)NC(=O)[C@H]([C@@H](C)O)NC(=O)[C@H](C(C)C)NC(=O)[C@H](CC3CCCCC3)NC(=O)[C@H](CCN)NC(=O)[C@@H](CC(C)C)NC(=O)[C@H](CCN)NC(=O)[C@H](Cc3ccc(OCC(=O)O)cc3)NC(=O)[C@H](Cc3ccc(-c4ccccc4)cc3)NC(=O)[C@H](Cc3ccc(OCC(=O)O)cc3)NC2=O)c1` [Compound 2161] ({CH2CO}-RY(Carboxymethyl)D[Phe(3-Me)]Y(Carboxymethyl)[Bip]Y(Carboxymethyl)[Dab][dL][Dab][Cha]VTC[Ac3c][Aun]-OH; thioether N-14) was tested. Which pIC50 did it give?
Answer: 7.89

Question: `Cc1cccc(C[C@@H]2NC(=O)[C@H](CC(=O)O)NC(=O)[C@H](Cc3ccc(OCC(=O)O)cc3)NC(=O)[C@H](CCCNC(=N)N)NC(=O)CSC[C@@H](C(=O)NC3(C(=O)NCCCCCCCCCCC(=O)O)CC3)NC(=O)[C@H]([C@@H](C)O)NC(=O)[C@H](C(C)C)NC(=O)[C@H](CC3CCCCC3)NC(=O)[C@H](CCN)NC(=O)[C@@H](CC(C)C)NC(=O)[C@H](CCCNC(N)=O)NC(=O)[C@H](Cc3ccc(OCC(=O)O)cc3)NC(=O)[C@H](Cc3ccc(-c4ccccc4)cc3)NC(=O)[C@H](Cc3ccc(OCC(=O)O)cc3)NC2=O)c1` [Compound 2162] ({CH2CO}-RY(Carboxymethyl)D[Phe(3-Me)]Y(Carboxymethyl)[Bip]Y(Carboxymethyl)[Cit][dL][Dab][Cha]VTC[Ac3c][Aun]-OH; thioether N-14) was tested. Which pIC50 did it give?
Answer: 7.89

Question: `Cc1cccc(C[C@@H]2NC(=O)[C@H](CC(=O)O)NC(=O)[C@H](Cc3ccc(OCC(=O)O)cc3)NC(=O)[C@H](CCCNC(=N)N)NC(=O)CSC[C@@H](C(=O)NC3(C(=O)NCCCCCCCCCCC(=O)O)CC3)NC(=O)[C@H]([C@@H](C)O)NC(=O)[C@H](C(C)C)NC(=O)[C@H](CC3CC3)NC(=O)[C@H](CCN)NC(=O)[C@@H](CC(C)C)NC(=O)[C@H](CCCN)NC(=O)[C@H](Cc3ccc(OCC(=O)O)cc3)NC(=O)[C@H](Cc3ccc(-c4ccccc4)cc3)NC(=O)[C@H](Cc3ccc(OCC(=O)O)cc3)NC2=O)c1` [Compound 2163] ({CH2CO}-RY(Carboxymethyl)D[Phe(3-Me)]Y(Carboxymethyl)[Bip]Y(Carboxymethyl)[Orn][dL][Dab][Ala(cPr)]VTC[Ac3c][Aun]-OH; thioether N-14) was tested. Which pIC50 did it give?
Answer: 7.03
